The text below walks through data of PubChem BioAssay (NCI).

Structures are written as SMILES.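 Values below derive from 48-hour exposures of cells grown in 96-well plates, with endpoints linearly interpolated between the two concentrations bracketing the appropriate inhibition level. GI50: concentration for 50% inhibition of growth. Definition used: TGI = concentration required for complete inhibition of growth.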

Some test systems named below: UO-31 renal; BT-549 breast; HL-60(TB) leukemia; CAKI-1 renal; OVCAR-4 ovarian; NCI/ADR-RES ovarian; T-47D breast; HS 578T breast.
Holding throughout (assay): inhibition of tumour cell growth, NCI panel, 48 h

Take `C[C@@H]1Cc2c(ccc3[nH]ncc23)[C@@H](c2ccc(NC3CN(CCCF)C3)cn2)N1CC(F)(F)F`: the GI50 with UO-31 renal is 12.6 µM; in the assay with BT-549 breast it was 16 µM; in the assay with HL-60(TB) leukemia, 15.7 µM; in the assay with CAKI-1 renal, 15.9 µM; in the assay with OVCAR-4 ovarian, 32.9 µM; in the assay with NCI/ADR-RES ovarian, 32.3 µM. Further, the figures for the GI50 in the assay with T-47D breast and in the assay with HS 578T breast were below 0.01 µM and 15 µM, respectively. In addition, the TGI is 26.8 µM with UO-31 renal; 37.2 µM with BT-549 breast; 43.4 µM in the assay with HL-60(TB) leukemia; 37.1 µM in the assay with CAKI-1 renal; above 100 µM in the assay with OVCAR-4 ovarian; above 100 µM with NCI/ADR-RES ovarian. For the same molecule, the TGI in the assay on T-47D breast turned out to be 23.2 µM; in the assay on HS 578T breast, 41 µM.
For the molecule `CN(C)Cc1cc(C(C)(C)C)cc(CN(C)C)c1O`, the TGI was 51.6 µM in the assay with UO-31 renal; above 100 µM in the assay on BT-549 breast; above 100 µM in the assay with CAKI-1 renal; above 100 µM in the assay on OVCAR-4 ovarian; above 100 µM in the assay on NCI/ADR-RES ovarian; above 100 µM in the assay on T-47D breast. Also, the TGI with HS 578T breast is above 100 µM.
As to `COc1ccc(F)cc1-c1ccnc2[nH]c(C3=CCN(C4CCC(CC(=O)O)CC4)CC3)cc12` (stereo not given), the GI50 in the assay on UO-31 renal is 0.205 µM; in the assay with BT-549 breast, 0.156 µM; in the assay with HL-60(TB) leukemia, 0.0739 µM; in the assay on CAKI-1 renal it was 0.434 µM; with OVCAR-4 ovarian it was 0.282 µM; with NCI/ADR-RES ovarian, 2.15 µM. Also, the GI50 was 0.187 µM in the assay on T-47D breast and 0.177 µM with HS 578T breast. The TGI with UO-31 renal is 0.625 µM; in the assay with BT-549 breast it was 0.903 µM; in the assay with HL-60(TB) leukemia, 1.45 µM; with CAKI-1 renal, above 100 µM; in the assay on OVCAR-4 ovarian, 6.44 µM; in the assay on NCI/ADR-RES ovarian, above 100 µM. Moreover, the TGI was above 100 µM in the assay on T-47D breast and 0.965 µM in the assay with HS 578T breast.
In the case of `CSc1nc2ccc(C)cc2cc1/C=C1/C=C(c2ccccc2)NC1=O`, the GI50 is 2.58 µM in the assay on UO-31 renal; 3.94 µM in the assay with BT-549 breast; above 100 µM in the assay with HL-60(TB) leukemia; 1.21 µM in the assay on CAKI-1 renal; 0.296 µM in the assay with OVCAR-4 ovarian; 3.99 µM in the assay on NCI/ADR-RES ovarian. The GI50 is 1.66 µM with T-47D breast and 1.92 µM with HS 578T breast. Also, the TGI with UO-31 renal was 12.4 µM; in the assay with BT-549 breast it was 22.9 µM; in the assay with HL-60(TB) leukemia, above 100 µM; with CAKI-1 renal it was 10.9 µM; with OVCAR-4 ovarian, 1.03 µM; in the assay with NCI/ADR-RES ovarian, 87.5 µM. Besides, the TGI with T-47D breast came out at 24.5 µM; in the assay with HS 578T breast, 7.46 µM.
On to `COC(=O)c1cc(C)[nH]c2c(C)cc3nc4ccccc4c3c12`, for which the GI50 in the assay with UO-31 renal is 4.46 µM; with BT-549 breast it was 12.1 µM; in the assay on HL-60(TB) leukemia, 7.34 µM; with CAKI-1 renal it was 2.89 µM; in the assay with OVCAR-4 ovarian, 12.5 µM; in the assay with NCI/ADR-RES ovarian, 3.87 µM. Moreover, the GI50 in the assay with T-47D breast is 3.2 µM; in the assay with HS 578T breast, 15 µM. For the same molecule, the TGI in the assay with UO-31 renal came out at 19.1 µM; in the assay on BT-549 breast, 25 µM; in the assay on HL-60(TB) leukemia, 55.3 µM; in the assay on CAKI-1 renal it was 13.4 µM; in the assay with OVCAR-4 ovarian it was 25.3 µM; with NCI/ADR-RES ovarian, 18 µM. Further, the TGI in the assay with T-47D breast was 12.9 µM; in the assay on HS 578T breast, above 100 µM.
With `C=C1C(=O)OC2(C)CCC1CC1OC1(C)CCC=C(C)CCC2O` (stereo not given), the TGI in the assay on UO-31 renal, with BT-549 breast, in the assay with HL-60(TB) leukemia, with CAKI-1 renal, in the assay on OVCAR-4 ovarian and with NCI/ADR-RES ovarian was above 100 µM throughout. Besides, the TGI with T-47D breast and in the assay with HS 578T breast was above 100 µM in each case.
`COc1cc2c(=O)n(CC3CCCCC3)c3c4cc[nH]c4ncc3c2cc1OC`: the GI50 is 0.848 µM in the assay on UO-31 renal; 0.807 µM with BT-549 breast; 12.8 µM with HL-60(TB) leukemia; 1.19 µM with CAKI-1 renal; 1.1 µM in the assay with OVCAR-4 ovarian; 3.74 µM in the assay with NCI/ADR-RES ovarian. Also, the GI50 with T-47D breast is 3.66 µM; in the assay with HS 578T breast, 0.719 µM. For the same molecule, the TGI in the assay with UO-31 renal is 9.56 µM; in the assay with BT-549 breast, 14.7 µM; in the assay on HL-60(TB) leukemia, above 50 µM; with CAKI-1 renal, 7.39 µM; in the assay on OVCAR-4 ovarian, 10.3 µM; with NCI/ADR-RES ovarian it was 34.5 µM. Further, the TGI in the assay with T-47D breast was above 50 µM; in the assay with HS 578T breast, 4.09 µM.
Regarding `CCCCCCCCc1cc(O)ccc1O`, the GI50 is 15 µM in the assay on UO-31 renal; 10.9 µM in the assay with BT-549 breast; 3.53 µM with HL-60(TB) leukemia; 21.3 µM with CAKI-1 renal; 14.8 µM in the assay on OVCAR-4 ovarian; 19.3 µM in the assay on NCI/ADR-RES ovarian. Besides, the GI50 in the assay on T-47D breast was 14.2 µM; with HS 578T breast, 15.4 µM. The TGI turned out to be 28.3 µM in the assay on UO-31 renal; 23.3 µM with BT-549 breast; 16.2 µM in the assay on HL-60(TB) leukemia; 90 µM in the assay on CAKI-1 renal; 39.2 µM with OVCAR-4 ovarian; 56.2 µM in the assay with NCI/ADR-RES ovarian. For the same molecule, the TGI came out at 37.6 µM in the assay with T-47D breast and 53.5 µM in the assay on HS 578T breast.
Consider `COc1ccc2c(c1)C=CC1C2CC[C@]2(C)C(NC(=O)/C=C/c3ccc(O)c(O)c3)CCC12` (stereo not given in full), for which the GI50 in the assay on UO-31 renal was 10.2 µM; in the assay with BT-549 breast, 19.6 µM; with HL-60(TB) leukemia, 5.01 µM; in the assay with CAKI-1 renal it was 7.1 µM; with NCI/ADR-RES ovarian it was 11.8 µM; with T-47D breast it was 12.2 µM. Further, the GI50 with HS 578T breast is 27.2 µM. Also, the TGI was found to be 27.3 µM with UO-31 renal; 56.9 µM in the assay on BT-549 breast; 23.8 µM in the assay on HL-60(TB) leukemia; 24.7 µM in the assay with CAKI-1 renal; 33.5 µM in the assay with NCI/ADR-RES ovarian; 29 µM with T-47D breast. The molecule further came in with a TGI with HS 578T breast above 100 µM.
